From US20230123334A1, “AMINO LIPID COMPOUND, PREPARATION METHOD THEREFOR, AND APPLICATION THEREOF” (SHENZHEN SHENXIN BIOTECHNOLOGY CO., LTD., priority 2020, published 2023)

tested on: HEK293 cells; test: Preliminary screening as DNA vectors, GFP transfection of HEK293 cells; assay type: cell-based; details: amino lipid/DOPE liposome with 75 ng plasmid DNA (psin-EGFP-IRES-Puro); number of GFP-expressing cells divided by total nuclei (Hoechst)
In short: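 HEK293 cells in DMEM/10% FBS transfected with 75 ng EGFP plasmid per well complexed with amino lipid/DOPE liposomes in pH 5.6 sodium acetate. Hoechst nuclear stain added 20-24 h post-transfection, then cells cultured another 20-24 h. Confocal imaging gives GFP-positive cells as % of total nuclei.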

SMILES	Absolute DNA transfection efficiency in HEK293 cells [%]
CCCCCCCCCNc1nc(NCCN2CCCCC2)nc(SCCCCCCCCC)n1 [S9N9 D4]	18.0
CCCCCCCCCNc1nc(NCCN2CCN(C)CC2)nc(SCCCCCCCCC)n1 [S9N9 D5]	47.4
CCCCCCCCCNc1nc(NCCCN(C)C)nc(SCCCCCCCCC)n1 [S9N9 D6]	60.6
CCCCCCCCCNc1nc(NCCN(CC)CC)nc(SCCCCCCCCC)n1 [S9N9 D7]	49.8
CCCCCCCCCNc1nc(NCCCN2CCOCC2)nc(SCCCCCCCCC)n1 [S9N9 D8]	14.8
CCCCCCCCCNc1nc(NCCCN2CCN(C)CC2)nc(SCCCCCCCCC)n1 [S9N9 D9]	50.7
CCCCCCCCCNc1nc(NCC2CCN(C)CC2)nc(SCCCCCCCCC)n1 [S9N9 D10]	34.5
CCCCCCCCCCCNc1nc(NCCN(C)C)nc(SCCCCCCCCC)n1 [S9N11 D1]	35.3
CCCCCCCCCCCNc1nc(NCCN2CCOCC2)nc(SCCCCCCCCC)n1 [S9N11 D2]	16.2
CCCCCCCCCCCNc1nc(NCCN2CCCC2)nc(SCCCCCCCCC)n1 [S9N11 D3]	43.4
CCCCCCCCCCCNc1nc(NCCN2CCCCC2)nc(SCCCCCCCCC)n1 [S9N11 D4]	8.3
CCCCCCCCCCCNc1nc(NCCN2CCN(C)CC2)nc(SCCCCCCCCC)n1 [S9N11 D5]	45.0
CCCCCCCCCCCNc1nc(NCCCN(C)C)nc(SCCCCCCCCC)n1 [S9N11 D6]	55.4
CCCCCCCCCCCNc1nc(NCCN(CC)CC)nc(SCCCCCCCCC)n1 [S9N11 D7]	15.7
CCCCCCCCCCCNc1nc(NCCCN2CCOCC2)nc(SCCCCCCCCC)n1 [S9N11 D8]	26.8
CCCCCCCCCCCNc1nc(NCCCN2CCN(C)CC2)nc(SCCCCCCCCC)n1 [S9N11 D9]	49.3
CCCCCCCCCCCNc1nc(NCC2CCN(C)CC2)nc(SCCCCCCCCC)n1 [S9N11 D10]	42.5
CCCCCCCCCCCCNc1nc(NCCN(C)C)nc(SCCCCCCCCC)n1 [S9N12 D1]	39.3
CCCCCCCCCCCCNc1nc(NCCN2CCOCC2)nc(SCCCCCCCCC)n1 [S9N12 D2]	13.0
CCCCCCCCCCCCNc1nc(NCCN2CCCC2)nc(SCCCCCCCCC)n1 [S9N12 D3]	47.3
CCCCCCCCCCCCNc1nc(NCCN2CCCCC2)nc(SCCCCCCCCC)n1 [S9N12 D4]	8.0
CCCCCCCCCCCCNc1nc(NCCN2CCN(C)CC2)nc(SCCCCCCCCC)n1 [S9N12 D5]	48.2
CCCCCCCCCCCCNc1nc(NCCCN(C)C)nc(SCCCCCCCCC)n1 [S9N12 D6]	70.5
CCCCCCCCCCCCNc1nc(NCCN(CC)CC)nc(SCCCCCCCCC)n1 [S9N12 D7]	12.4

SMILES	Absolute DNA transfection efficiency in HEK293 cells [%]
CCCCCCCCCCCCNc1nc(NCCCN2CCOCC2)nc(SCCCCCCCCC)n1 [S9N12 D8]	13.6
CCCCCCCCCCCCNc1nc(NCCCN2CCN(C)CC2)nc(SCCCCCCCCC)n1 [S9N12 D9]	28.8
CCCCCCCCCCCCNc1nc(NCC2CCN(C)CC2)nc(SCCCCCCCCC)n1 [S9N12 D10]	25.8
CCCCCCCCCCCCCNc1nc(NCCN(C)C)nc(SCCCCCCCCC)n1 [S9N13 D1]	25.0
CCCCCCCCCCCCCNc1nc(NCCN2CCOCC2)nc(SCCCCCCCCC)n1 [S9N13 D2]	11.1
CCCCCCCCCCCCCNc1nc(NCCN2CCCC2)nc(SCCCCCCCCC)n1 [S9N13 D3]	31.6
CCCCCCCCCCCCCNc1nc(NCCN2CCCCC2)nc(SCCCCCCCCC)n1 [S9N13 D4]	6.7
CCCCCCCCCCCCCNc1nc(NCCN2CCN(C)CC2)nc(SCCCCCCCCC)n1 [S9N13 D5]	27.9
CCCCCCCCCCCCCNc1nc(NCCCN(C)C)nc(SCCCCCCCCC)n1 [S9N13 D6]	31.8
CCCCCCCCCCCCCNc1nc(NCCN(CC)CC)nc(SCCCCCCCCC)n1 [S9N13 D7]	6.5
CCCCCCCCCCCCCNc1nc(NCCCN2CCOCC2)nc(SCCCCCCCCC)n1 [S9N13 D8]	11.3
CCCCCCCCCCCCCNc1nc(NCCCN2CCN(C)CC2)nc(SCCCCCCCCC)n1 [S9N13 D9]	19.9
CCCCCCCCCCCCCNc1nc(NCC2CCN(C)CC2)nc(SCCCCCCCCC)n1 [S9N13 D10]	29.4
CCCCCCCCCCCCCCCNc1nc(NCCN(C)C)nc(SCCCCCCCCC)n1 [S9N15 D1]	29.8
CCCCCCCCCCCCCCCNc1nc(NCCN2CCOCC2)nc(SCCCCCCCCC)n1 [S9N15 D2]	7.3
CCCCCCCCCCCCCCCNc1nc(NCCN2CCCC2)nc(SCCCCCCCCC)n1 [S9N15 D3]	22.7
CCCCCCCCCCCCCCCNc1nc(NCCN2CCCCC2)nc(SCCCCCCCCC)n1 [S9N15 D4]	4.2
CCCCCCCCCCCCCCCNc1nc(NCCN2CCN(C)CC2)nc(SCCCCCCCCC)n1 [S9N15 D5]	16.1
CCCCCCCCCCCCCCCNc1nc(NCCCN(C)C)nc(SCCCCCCCCC)n1 [S9N15 D6]	13.4
CCCCCCCCCCCCCCCNc1nc(NCCN(CC)CC)nc(SCCCCCCCCC)n1 [S9N15 D7]	4.6
CCCCCCCCCCCCCCCNc1nc(NCCCN2CCOCC2)nc(SCCCCCCCCC)n1 [S9N15 D8]	5.3
CCCCCCCCCCCCCCCNc1nc(NCCCN2CCN(C)CC2)nc(SCCCCCCCCC)n1 [S9N15 D9]	10.9
CCCCCCCCCCCCCCCNc1nc(NCC2CCN(C)CC2)nc(SCCCCCCCCC)n1 [S9N15 D10]	19.0
CCCCCCCCCCCCCCCCNc1nc(NCCN(C)C)nc(SCCCCCCCCC)n1 [S9N16 D1]	19.2

SMILES	Absolute DNA transfection efficiency in HEK293 cells [%]
CCCCCCCCCCCCCCCCNc1nc(NCCN2CCOCC2)nc(SCCCCCCCCC)n1 [S9N16 D2]	23.5
CCCCCCCCCCCCCCCCNc1nc(NCCN2CCCC2)nc(SCCCCCCCCC)n1 [S9N16 D3]	31.3
CCCCCCCCCCCCCCCCNc1nc(NCCN2CCCCC2)nc(SCCCCCCCCC)n1 [S9N16 D4]	8.1
CCCCCCCCCCCCCCCCNc1nc(NCCN2CCN(C)CC2)nc(SCCCCCCCCC)n1 [S9N16 D5]	21.7
CCCCCCCCCCCCCCCCNc1nc(NCCCN(C)C)nc(SCCCCCCCCC)n1 [S9N16 D6]	29.7
CCCCCCCCCCCCCCCCNc1nc(NCCN(CC)CC)nc(SCCCCCCCCC)n1 [S9N16 D7]	6.4
CCCCCCCCCCCCCCCCNc1nc(NCCCN2CCOCC2)nc(SCCCCCCCCC)n1 [S9N16 D8]	18.4
CCCCCCCCCCCCCCCCNc1nc(NCCCN2CCN(C)CC2)nc(SCCCCCCCCC)n1 [S9N16 D9]	20.3
CCCCCCCCCCCCCCCCNc1nc(NCC2CCN(C)CC2)nc(SCCCCCCCCC)n1 [S9N16 D10]	21.8
CCCCCCCCCCCCCCCCCCNc1nc(NCCN(C)C)nc(SCCCCCCCCC)n1 [S9N18 D1]	24.2
CCCCCCCCCCCCCCCCCCNc1nc(NCCN2CCOCC2)nc(SCCCCCCCCC)n1 [S9N18 D2]	10.2
CCCCCCCCCCCCCCCCCCNc1nc(NCCN2CCCC2)nc(SCCCCCCCCC)n1 [S9N18 D3]	33.8
CCCCCCCCCCCCCCCCCCNc1nc(NCCN2CCCCC2)nc(SCCCCCCCCC)n1 [S9N18 D4]	9.0
CCCCCCCCCCCCCCCCCCNc1nc(NCCN2CCN(C)CC2)nc(SCCCCCCCCC)n1 [S9N18 D5]	22.9
CCCCCCCCCCCCCCCCCCNc1nc(NCCCN(C)C)nc(SCCCCCCCCC)n1 [S9N18 D6]	47.5
CCCCCCCCCCCCCCCCCCNc1nc(NCCN(CC)CC)nc(SCCCCCCCCC)n1 [S9N18 D7]	6.0
CCCCCCCCCCCCCCCCCCNc1nc(NCCCN2CCOCC2)nc(SCCCCCCCCC)n1 [S9N18 D8]	26.1
CCCCCCCCCCCCCCCCCCNc1nc(NCCCN2CCN(C)CC2)nc(SCCCCCCCCC)n1 [S9N18 D9]	15.8
CCCCCCCCCCCCCCCCCCNc1nc(NCC2CCN(C)CC2)nc(SCCCCCCCCC)n1 [S9N18 D10]	11.2
CCCCCCCCCCCCN(CCCCCCCCCCCC)c1nc(NCCN(C)C)nc(SCCCCCCCCC)n1 [S9^2N12 D1]	0.3
CCCCCCCCCCCCN(CCCCCCCCCCCC)c1nc(NCCN2CCOCC2)nc(SCCCCCCCCC)n1 [S9^2N12 D2]	0.0
CCCCCCCCCCCCN(CCCCCCCCCCCC)c1nc(NCCN2CCCC2)nc(SCCCCCCCCC)n1 [S9^2N12 D3]	0.0
CCCCCCCCCCCCN(CCCCCCCCCCCC)c1nc(NCCN2CCCCC2)nc(SCCCCCCCCC)n1 [S9^2N12 D4]	0.0
CCCCCCCCCCCCN(CCCCCCCCCCCC)c1nc(NCCN2CCN(C)CC2)nc(SCCCCCCCCC)n1 [S9^2N12 D5]	0.3
